Measurements taken from patent publication US12371432B2, “Haloallylamine compounds and application thereof” (TransThera Sciences (Nanjing), Inc., priority 2019, dated 2025).
pIC50: −log10 of the molar value. Where a name gives a salt, the structure may show the parent alone.

Legend:
Format in all cases: biochemical
[1] = target: T1, MAO-B (Homo sapiens, UniProt P27338); test: Selectivity against MAO-B enzyme (MAO-Glo)
T1 construct: purchased Active Motif
T1 sequence (P27338 1-520): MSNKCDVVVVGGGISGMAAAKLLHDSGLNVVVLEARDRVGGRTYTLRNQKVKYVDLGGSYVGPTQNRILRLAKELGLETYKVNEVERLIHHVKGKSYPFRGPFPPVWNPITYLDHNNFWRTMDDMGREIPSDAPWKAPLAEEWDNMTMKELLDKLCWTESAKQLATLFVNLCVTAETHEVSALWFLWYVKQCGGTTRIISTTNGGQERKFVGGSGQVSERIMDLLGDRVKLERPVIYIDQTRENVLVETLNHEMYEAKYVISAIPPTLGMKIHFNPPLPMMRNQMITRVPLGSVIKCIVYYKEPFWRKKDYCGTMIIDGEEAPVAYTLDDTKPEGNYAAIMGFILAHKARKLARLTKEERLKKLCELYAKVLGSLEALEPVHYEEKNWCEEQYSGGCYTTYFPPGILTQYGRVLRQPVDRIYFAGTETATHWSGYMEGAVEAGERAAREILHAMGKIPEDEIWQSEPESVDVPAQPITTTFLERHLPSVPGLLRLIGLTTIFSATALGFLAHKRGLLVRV
Procedure: (§1) (1) Instrument, Consumable and Reagent
(§2) Microplate reader (Perkin Elmer, EnVision), 384-well plate (Perkin Elmer), centrifuge (Eppendorf), MAO-Glo™ (Promega), MAO-A (Active Motif) and MAO-B (Active Motif).
(§3) (2) Preparation of Concentration Gradient Compound Solutions
(§4) An appropriate amount of the compound to be tested was taken, dissolved in DMSO to 10 mM and then stored. The solution was then gradiently diluted 4-fold with DMSO, 6 concentration gradients in total.
(§5) (3) Preparation of Enzyme Solutions
(§6) MAO-A/B mother liquor was diluted with the experimental buffer for MAO-A/B to obtain enzyme solutions of 2× concentrations.
(§7) (4) Preparation of Substrate Mixtures of 2× Concentrations
(§8) The mother liquor of MAO-A/B substrate mixture was diluted with the experimental buffer for MAO-A/B to obtain substrate mixtures of 2× concentrations.
(§9) 200 nL compound solutions or solvents of different concentrations and 10 μL MAO-A/B enzyme solutions of 2× concentrations were added into a 384-well plate, centrifuged at 1,000 rpm for 60 s, shaken to be mixed uniformly and then incubated at room temperature for 15 min. 10 μL substrate mixtures of 2× concentrations were then added into each well, and reaction was initiated. The 384-well plate was centrifuged at 1,000 rpm for 60 s, shaken for a uniform mixing and then incubated at room temperature for 60 min. 20 μL of test stop solution was added to stop reaction. Centrifugation was performed at 1,000 rpm for 60 s, and shaking was performed for uniform mixing. After 30 min of standing, the microplate reader was used to perform reading.
(§10) The inhibition rate was calculated according to the following formula: Inhibition rate (%)=(Signal_Max-Signal_sample)/(Signal_Max-Signal_min)×100 (6) Fitting of Dose-Response Curve
(§11) With the log value of concentration as the X axis and the percent inhibition rate as the Y axis, the log (inhibitor) vs. response-variable slope of analysis software GraphPad Prism 5 was used to fit a dose-response curve, thus obtaining the IC50 value of activity of each compound against the enzyme.

[2] = target: T2, rhVAP-1 (Homo sapiens, UniProt Q16853); test: Inhibitory activity against rhVAP-1 enzyme (Biological Example 2); conditions: Table 2; benzylamine substrate, Amplex Red/HRP
T2 construct: purchased PeproTech
T2 sequence (Q16853 27-763 limits assumed): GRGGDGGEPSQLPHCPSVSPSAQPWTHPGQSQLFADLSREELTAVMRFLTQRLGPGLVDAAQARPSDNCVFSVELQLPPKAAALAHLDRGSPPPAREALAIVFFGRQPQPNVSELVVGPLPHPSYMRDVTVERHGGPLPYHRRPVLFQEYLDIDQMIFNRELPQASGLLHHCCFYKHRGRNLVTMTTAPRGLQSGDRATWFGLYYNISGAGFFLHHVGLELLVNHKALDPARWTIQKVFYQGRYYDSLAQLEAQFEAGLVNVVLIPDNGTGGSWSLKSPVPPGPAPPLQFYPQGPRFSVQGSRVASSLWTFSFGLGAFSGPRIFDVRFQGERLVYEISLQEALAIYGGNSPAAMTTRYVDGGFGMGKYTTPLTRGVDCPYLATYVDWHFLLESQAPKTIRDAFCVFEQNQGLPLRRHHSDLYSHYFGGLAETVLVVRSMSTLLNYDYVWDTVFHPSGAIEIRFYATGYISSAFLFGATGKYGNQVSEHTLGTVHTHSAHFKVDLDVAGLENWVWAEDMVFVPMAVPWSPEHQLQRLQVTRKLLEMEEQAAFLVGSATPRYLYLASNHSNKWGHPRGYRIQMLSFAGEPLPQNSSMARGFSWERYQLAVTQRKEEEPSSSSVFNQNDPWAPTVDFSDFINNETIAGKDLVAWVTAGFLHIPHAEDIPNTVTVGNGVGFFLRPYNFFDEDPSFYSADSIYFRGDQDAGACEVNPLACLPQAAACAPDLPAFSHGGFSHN
Procedure: (§12) 1. Inhibitory Activity of Compounds Against rhVAP-1 Enzyme
as §1
Microplate reader (Perkin Elmer, Nivo 5S), black unclear-bottom 96-well plate (Corning) and rhVAP-1 (PeproTech)
as §3
(§13) An appropriate amount of the compound to be tested was taken, dissolved in DMSO to 10 mM and then stored. Before the study, an appropriate amount of mother liquor of the 10 mM compound to be tested was taken and gradiently diluted 3-fold with DMSO, 10 concentration gradients in total. Each concentration gradient was then diluted 100-fold with 0.1 M of PBS.
as §5
(§14) An appropriate amount of protein diluent was added into rhVAP-1 powder, obtaining 1 mg/mL of mother liquor for storage. Before the study, PBS was used to carry out dilution to obtain enzyme solutions of 4× concentrations.
as §7
(§15) An appropriate amount of benzylamine was weighed and dissolved with PBS to obtain 200 mM of benzylamine solution. The benzylamine solution was added with 2 mM of Amplex Red mother liquor and 500 U/mL of HRP mother liquor and diluted with PBS to obtain substrate mixtures of 2× concentrations.
10 μL compound solutions of different concentrations, 25 μL rhVAP-1 enzyme solutions of 4× concentrations and 15 μL of PBS were first added into a 96-well plate, shaken to be mixed uniformly and then incubated at 37° C. for 30 min. 50 μL substrate mixtures of 2× concentrations were then added into each well, and the microplate reader was immediately used to perform detection with 580 nm (20 nm) exciting light and 620 nm (10 nm) emission light for 5 min each time, 30 min in total. The inhibition rate was calculated according to the following formula: V (RFU/min)=(Ft (RFU)−F0 (RFU))/(time(min)) Inhibition rate (%)=100%−Vcmpd (RFU/min)/Vmax (RFU/min)×100%
V: fluorescence change rate; Ft: fluorescence reading at time point t; F0: initial fluorescence reading; Time: duration t; Vcmpd: fluorescence change rate of tested compound; Vmax: Max hole fluorescence change rate.
(6) Fitting of Dose-Response Curve
as §11

[3] = target: T3, MAO-A (Homo sapiens, UniProt P21397); test: Selectivity against MAO-A enzyme (MAO-Glo)
T3 construct: purchased Active Motif
T3 sequence (P21397 1-527): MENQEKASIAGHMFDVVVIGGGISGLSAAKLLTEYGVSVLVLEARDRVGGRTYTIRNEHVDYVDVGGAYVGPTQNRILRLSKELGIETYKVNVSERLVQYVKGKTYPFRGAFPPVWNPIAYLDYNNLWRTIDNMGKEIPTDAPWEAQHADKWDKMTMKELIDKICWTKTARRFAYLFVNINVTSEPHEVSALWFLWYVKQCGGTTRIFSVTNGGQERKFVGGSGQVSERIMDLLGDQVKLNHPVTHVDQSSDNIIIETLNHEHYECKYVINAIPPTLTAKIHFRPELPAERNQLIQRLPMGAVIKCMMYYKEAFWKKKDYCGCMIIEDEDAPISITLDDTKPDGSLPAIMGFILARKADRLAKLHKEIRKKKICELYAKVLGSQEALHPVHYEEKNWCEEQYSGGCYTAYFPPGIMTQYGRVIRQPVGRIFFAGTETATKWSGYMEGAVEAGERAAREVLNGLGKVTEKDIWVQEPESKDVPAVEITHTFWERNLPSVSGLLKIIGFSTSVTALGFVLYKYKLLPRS
Procedure: as §1, §2, §3, §4, §5, §6, §7, §8, §9, §10, §11

[4] = target: T4, rhAOC1 (Homo sapiens, UniProt P19801); test: Selectivity against rhAOC1 enzyme (Biological Example 1); conditions: Table 1; histamine substrate, Amplex Red/HRP
T4 construct: purchased R&D
T4 sequence (P19801 20-751): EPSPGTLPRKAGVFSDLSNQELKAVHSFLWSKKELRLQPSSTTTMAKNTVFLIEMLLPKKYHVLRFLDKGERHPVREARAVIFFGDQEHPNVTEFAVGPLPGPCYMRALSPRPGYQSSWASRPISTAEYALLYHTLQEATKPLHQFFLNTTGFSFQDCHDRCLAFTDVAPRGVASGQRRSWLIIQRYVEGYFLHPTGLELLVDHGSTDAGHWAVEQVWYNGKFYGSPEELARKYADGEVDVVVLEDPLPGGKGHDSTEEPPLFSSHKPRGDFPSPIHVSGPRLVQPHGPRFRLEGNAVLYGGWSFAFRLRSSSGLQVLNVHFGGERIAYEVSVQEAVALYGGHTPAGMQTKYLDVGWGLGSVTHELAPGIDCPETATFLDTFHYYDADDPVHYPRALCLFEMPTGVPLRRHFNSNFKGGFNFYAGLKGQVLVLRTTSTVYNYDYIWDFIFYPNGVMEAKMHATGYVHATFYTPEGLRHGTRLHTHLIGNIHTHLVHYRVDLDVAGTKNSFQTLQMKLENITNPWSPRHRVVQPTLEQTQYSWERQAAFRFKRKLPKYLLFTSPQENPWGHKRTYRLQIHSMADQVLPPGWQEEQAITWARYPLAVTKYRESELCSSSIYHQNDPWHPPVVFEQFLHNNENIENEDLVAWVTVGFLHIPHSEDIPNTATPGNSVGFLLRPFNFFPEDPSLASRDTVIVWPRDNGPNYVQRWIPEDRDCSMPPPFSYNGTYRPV
Procedure: 2. Selectivity of Compounds Against rhAOC1 Enzyme
as §1
Microplate reader (Perkin Elmer, Nivo 5S), black unclear-bottom 96-well plate (Corning) and rhAOC1 (R&D)
as §3
as §13, with “10-fold” for “100-fold”
as §5
An appropriate amount of rhAOC1 mother liquor with a concentration of 0.441 mg/mL was taken and diluted with an appropriate amount of 50 mM HEPES buffer solution to obtain enzyme solutions of 4× concentrations.
as §7
as §15, with “histamine” for “benzylamine”, “50 mM of HEPES buffer solution” for “PBS”, “20” for “200”
10 μL compound solutions of different concentrations, 25 μL rhAOC1 enzyme solutions of 4× concentrations and 15 μL of 50 mM HEPES buffer solution were first added into a 96-well plate, shaken to be mixed uniformly and then incubated at 37° C. for 30 min. 50 μL substrate mixtures of 2× concentrations were then added into each well, and the microplate reader was immediately used to detect fluorescence intensity of each well with 580 nm (20 nm) exciting light and 620 nm (10 nm) emission light for 5 min each time, 30 min in total. […]
(§16) V: fluorescence change rate; Ft: fluorescence reading at time point t; F0: initial fluorescence reading; Time: duration t; Vcmpd: fluorescence change rate of tested compound; Vmax: Max hole fluorescence change rate. […]

[5] = target: T2, rhVAP-1; test: Inhibitory activity against rhVAP-1 enzyme (Biological Example 1); conditions: Table 1; benzylamine substrate, Amplex Red/HRP
Procedure: as §12, §1
Multifunctional microplate reader (MD, FlexStation3), black unclear-bottom 96-well plate (Corning), and rhVAP-1 (PeproTech)
as §3
An appropriate amount of the compound to be tested was taken, dissolved in DMSO to 10 mM and then stored. Before the study, an appropriate amount of mother liquor of the 10 mM compound to be tested was diluted with DMSO, so that 1 mM solution was obtained. The solution was then gradiently diluted 3-fold with DMSO, 10 concentration gradients in total. PBS was then used to carry out 100-fold dilution, so that compound solutions of 10× series of concentrations were prepared.
as §5, §14, §7, §15
10 μL compound solutions of different concentrations, 25 μL rhVAP-1 enzyme solutions of 4× concentrations and 15 μL of PBS were first added into a 96-well plate, shaken to be mixed uniformly and then incubated at 37° C. for 30 min. 50 μL substrate mixtures of 2× concentrations were then added into each well, and the microplate reader was immediately used to detect fluorescence intensity of each well with 565 nm exciting light and 590 nm emission light for 5 min each time, 25 min in total. […]
as §16

pIC50 [1]	pIC50 [2]	pIC50 [3]	pIC50 [4]	pIC50 [5]	SMILES
< 4.00	8.10	< 4.00			CC(C)(C)CN1CCc2nn(C/C(=C/F)CN)cc2C1=O [Compound A37 hydrochloride, (E)-2-(2-(aminomethyl)-3-fluoroallyl)-5-neopentyl-2,5,6,7-tetrahydro-4H-pyrazolo[4,3-c]pyridin-4-one]
4.05	7.89	4.11			NC/C(=C\F)Cn1ncc2c(=O)n(C3CC3)ccc21 [Compound A44 hydrochloride, (E)-1-(2-(aminomethyl)-3-fluoroallyl)-5-cyclopropyl-1,5-dihydro-4H-pyrazolo[4,3-c]pyridin-4-one]
			4.57	7.10	NC/C(=C\F)Cn1ccc2cc(C(=O)N3CCOCC3)ccc21 [Compound C1, (E)-(1-(2-(aminomethyl)-3-fluoroallyl)-1H-indol-5-yl)(morpholino)methanone]
